Experimental data: PubChem BioAssay AID1645868 (Buhrlage Lab, Dana-Farber Cancer Institute and Novartis …, 2021)
Active and inactive are the calls of the source.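 Rule for the calls: active = maximal percent inhibition of the deubiquitinase OTUD3 of at least 30% across the tested doses; inactive = the rest.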

What follows are compounds tested against OTU domain-containing protein 3 (Homo sapiens) (UniProt Q5T2D3) (assay: Validation of screening hits, potency titration, in vitro enzymatic, OTU domain-containing protein 3 DUB inhibitors (AID 1645868)). Conditions: purified OTUD3, ubiquitin-rhodamine cleavage fluorescence, 2 h.
OTU domain-containing protein 3 (Homo sapiens), sequence (Q5T2D3 whole entry, looked up, the tested form may be a part): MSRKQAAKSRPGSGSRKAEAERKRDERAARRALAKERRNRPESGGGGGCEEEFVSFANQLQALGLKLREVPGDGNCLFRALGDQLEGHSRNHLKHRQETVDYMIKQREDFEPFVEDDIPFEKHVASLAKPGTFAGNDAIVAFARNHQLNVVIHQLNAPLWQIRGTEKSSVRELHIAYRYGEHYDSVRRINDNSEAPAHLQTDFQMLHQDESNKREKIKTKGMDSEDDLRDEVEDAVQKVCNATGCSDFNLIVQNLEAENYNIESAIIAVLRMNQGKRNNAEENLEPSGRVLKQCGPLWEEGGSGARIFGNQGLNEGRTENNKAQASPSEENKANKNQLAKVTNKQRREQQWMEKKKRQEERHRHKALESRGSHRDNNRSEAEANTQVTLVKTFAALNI

SMILES	IC50
O=C(Nc1ccc2sccc2c1)c1ccc(F)cc1	> 50 µM (inactive)
COc1c(C)c(C(O)C(C)O)c2[nH]c3ccc(CC=C(C)C)cc3c2c1O (configuration not stated)	25.6 µM
O=C(CCc1nnc2n(Cc3ccccc3Cl)c(=O)c3ccccc3n12)NCc1ccccn1	> 50 µM (inactive)
O=C(c1ccco1)N1CCCC2(C1)Nc1cccnc1NC2=NC1CCCC1 (configuration not stated)	> 50 µM (inactive)
Cc1ccc(S(=O)(=O)c2cnc(SCC(=O)Nc3ccc(Cl)cc3)nc2N)cc1C	> 50 µM (inactive)
CC1Cc2ccccc2N1C(=O)Cn1c(=O)cc(O)c2ccccc21 (configuration not stated)	> 50 µM (inactive)
Cc1c(-c2nsc(NC(=O)c3ccc(Cl)cc3)n2)nnn1-c1ccccc1F	18.9 µM
CC(C)=CCC/C(C)=C/Cc1c(O)cc2c(c1O)C(=O)OC2	3.25 µM
Cc1ccccc1C(=O)c1ccc(C(=O)NC2CCCCCC2)[nH]1	20.7 µM
O=C1Oc2nc3ccccc3cc2CN1Cc1ccco1	34.4 µM
O=C(CSc1nc2ccncc2[nH]1)Nc1ccc(Br)cc1F	49.8 µM
CC(C)(C)c1cc(CCC(=O)Nc2c3c(nc4c2CCC4)CCCC3)cc(C(C)(C)C)c1O	> 50 µM (inactive)
O=C(COC(=O)c1ccc(CN2CCCC2=O)cc1)c1ccc2c(c1)OCCO2	> 50 µM (inactive)
COc1cccc(NC(=O)c2ccc(F)cc2Cl)c1	> 50 µM (inactive)
Cn1c(=O)[nH]c(=O)c2c1nc1n(CCc3ccccc3)c(-c3ccccc3)cn21	> 50 µM (inactive)
CCc1ccc(C(C)NC(=O)C2CCN(c3ccc4nncn4n3)CC2)cc1 (configuration not stated)	> 50 µM (inactive)
COc1ccc(C(=O)Nc2nc3n(n2)C(c2ccccc2)CC(=O)N3)cc1 (configuration not stated)	18.7 µM
Cc1noc(C)c1CN1CC[C@H]2O[C@H](C(=O)NCc3ccco3)CC[C@H]21	> 50 µM (inactive)
Cc1ccc2cc3c(nc2n1)CCN(Cc1ccc(F)cc1)C3	> 50 µM (inactive)
Fc1ccc(-c2noc(-c3nnc(NCc4cccnc4)c4ccccc34)n2)cc1	> 50 µM (inactive)
FC(F)(F)c1ccccc1CCN1CCc2nc3ncc(Cl)cc3cc2C1	> 50 µM (inactive)
Cc1ccc(NC(=O)c2nnn(-c3ccccc3Br)c2C)cc1C	> 50 µM (inactive)
O=C(NC1CCS(=O)(=O)C1)c1ccc(N2CCC(Cc3ccccc3)CC2)nn1 (configuration not stated)	> 50 µM (inactive)
CN(C)c1cccc(C(=O)Nc2cc(-c3cccnc3)no2)c1	35.8 µM

SMILES	IC50
C=C(NC(=O)C(=C)NC(=O)c1csc(-c2ccc3c(n2)-c2csc(n2)-c2csc(n2)C(C(C)C2CO2)NC(=O)C(Cc2ccc(O)cc2)NC(=O)c2csc(n2)C(C(O)c2ccccc2)NC(=O)c2nc(sc2C)C(CC(N)=O)NC(=O)c2csc-3n2)n1)C(=O)O (configuration not stated)	43.6 µM
C=C(NC(=O)C(=C)NC(=O)c1csc(C2=N[C@@H]3c4csc(n4)[C@H]4NC(=O)c5csc(n5)[C@H]([C@](C)(O)[C@@H](C)O)NC(=O)[C@H]5CSC(=N5)/C(=C/C)NC(=O)C([C@@H](C)O)NC(=O)c5csc(n5)C3(CC2)NC(=O)[C@H](C)NC(=O)C(=C)NC(=O)[C@H](C)NC(=O)C([C@@H](C)CC)N[C@@H]2C=Cc3c(C(C)O)cc(nc3[C@H]2O)C(=O)OC4C)n1)C(N)=O (some centres not stated)	> 50 µM (inactive)
CCOc1ccc2c(c1)c(=O)c(C(=O)c1ccccc1)cn2CC(=O)Nc1ccc2c(c1)OCCO2	43 µM
Cc1ccc(C)c(NS(=O)(=O)c2cc(-c3cnc(C4CC4)o3)ccc2C)c1	> 50 µM (inactive)
Cc1cccc(COc2ccc(C3SCC(=O)Nc4n[nH]c(C)c43)cc2)c1 (configuration not stated)	15.5 µM
COc1cccc2c1OCC(NS(=O)(=O)c1cc(C)ccc1C)C2 (configuration not stated)	> 50 µM (inactive)
COc1cc(Cl)ccc1Oc1ncnc2sc(C)c(C)c12	> 50 µM (inactive)
CN1CCN(C(=O)c2cc(-c3ccn(CC4CC4)n3)n3ccccc23)CC1	> 50 µM (inactive)
CC1=C[C@H]2N(c3ccc(C)cc31)[C@H](C(=O)c1cccs1)[C@@H](C(=O)c1ccc(F)cc1)[C@]21C(=O)Nc2ccccc21	> 50 µM (inactive)
NC(=O)Cn1c(=O)n(Cc2ccc(C(=O)NC3CCCC3)cc2)c(=O)c2ccccc21	> 50 µM (inactive)
COc1ccc(OC)c(CCNC(=O)CCC2=NS(=O)(=O)c3ccc(C(F)(F)F)cc3N2)c1	29.2 µM
CS(=O)(=O)n1nc(NCc2ccc(F)cc2)nc1NCc1ccc(F)cc1	> 50 µM (inactive)
O=C(CCn1c(=O)c2sccc2n(CC(=O)OCc2ccccc2)c1=O)NCc1ccc2c(c1)OCO2	20.7 µM
c1coc(CNc2nc3ccccc3n3nnnc23)c1	> 50 µM (inactive)
COc1ccc(-c2cc3c(=O)n(CC(=O)Nc4ccccc4F)ccn3n2)cc1OC	> 50 µM (inactive)
Cc1ccccc1C(=O)NCCn1cc(SCC(=O)Nc2ccc3c(c2)OCCO3)c2ccccc21	> 50 µM (inactive)
COc1ccc2ncc3c(-c4ccc(C)cc4)nn(-c4ccc(F)cc4)c3c2c1	> 50 µM (inactive)
O=C(c1ccnn1-c1ccc2ccc(-c3ccncc3)cn12)N1CCCC1	> 50 µM (inactive)
O=C(Nc1ccccc1)c1cn(-c2cc(N3CCCC3)ncn2)cn1	> 50 µM (inactive)
COc1ccc(OC)c(-c2cn3ccn(-c4ccc5c(c4)CCC5)c(=O)c3n2)c1	> 50 µM (inactive)
CCCNc1cc(-c2ccccc2)nc2nc(-c3cccnc3)nn12	> 50 µM (inactive)
CCCC(=O)Nc1nc2ccc(CCC(=O)NCc3ccc(F)cc3)cc2s1	35.6 µM
CC1(C)CC(n2[nH]c(=O)c3c2NC(=O)CSC3c2ccc(OCc3ccccc3)cc2)CCO1 (configuration not stated)	22.4 µM

Next, values leading:

IC50	SMILES
25.5 µM	O=C(Cn1c(-c2ccccc2)ncc(C(=O)NC2CC2)c1=O)Nc1ccccc1
22.5 µM	CCCCCCCCCC(CCCCCCCCCC(=O)O)O[C@H]1O[C@@H](COC(C)=O)[C@H](O)[C@@H](O)[C@H]1OC(=O)CC(=O)O (some centres not stated)
> 50 µM (inactive)	CCN(CC)C(=O)CN1CCCC(c2ncncc2-c2cc(C)no2)C1 (configuration not stated)
24.7 µM	NS(=O)(=O)c1ccc(CNS(=O)(=O)c2ccc(-c3ccccn3)s2)cc1
> 50 µM (inactive)	O=C(NCc1ccc(-c2nc3cnccc3o2)cc1)c1cc2ccccc2o1
31.9 µM	Cc1cc(O)c2c3c(c(O)c4c(c13)O[C@@H](C)C4(C)C)C(=O)C2=O
> 50 µM (inactive)	CC(=O)c1oc2nc3c(c(-c4ccc(Cl)cc4)c2c1N)CCc1ccccc1-3
20.4 µM	COc1ccc(-c2nc(-c3nnn(Cc4ccc(F)cc4)c3C)no2)c(OC)c1
38 µM	Cc1ccccc1NC(=O)C(C)n1c(=O)cc(-c2ccccc2)c2c(C)nn(C)c21 (configuration not stated)
2.1 µM	Cc1ccc(-n2nc(C(=O)Nc3ccc(C)cn3)c3ncn(C)c(=O)c32)cc1
> 50 µM (inactive)	O=C(Nc1cc(F)c2nc(N3CCOCC3)ccc2c1)c1ccc(Br)o1
> 50 µM (inactive)	O=C1/C(=C/c2cn(-c3ccccc3)nc2-c2ccc3c(c2)OCCO3)Cc2ccccc21
> 50 µM (inactive)	Cc1c(C)n(-c2ccccc2)c2ncn(CC(=O)N(C)Cc3ccccc3)c(=O)c12
> 50 µM (inactive)	Cc1ccc(C(=O)Nc2ccc3c(c2)C(=O)N(C)c2ccccc2O3)cc1C
23.4 µM	CCCCc1ccc(-c2cc(C(=O)NCCN3CCOCC3)c3cc(Br)ccc3n2)cc1
> 50 µM (inactive)	COc1cccc(-c2cc(=O)[nH]c(Nc3nc(C)c4ccccc4n3)n2)c1
1.51 µM	COc1cccc2cc(C(=O)Nc3nc(-c4ccncc4)cs3)oc12
> 50 µM (inactive)	COC1C(O)=C2C(=O)O/C(C)=C/C=C/C=C/C=C/CC(c3ccccc3)NC(=O)/C=C/C=C/C=C\C=C\C2(C)C1O (configuration not stated)
> 50 µM (inactive)	O=c1[nH]c(C2CCN(S(=O)(=O)c3ccc(S(=O)(=O)NC4CCCC4)cc3)CC2)nc2c1nnn2Cc1cccc(Cl)c1
0.168 µM	Cc1ccc2c(C)nc(Nc3ncc4c(n3)CC(c3ccco3)CC4=O)nc2c1 (configuration not stated)

IC50	SMILES
24.8 µM	O=C(NCc1ccc2c(c1)OCO2)c1[nH]nc2c1COc1ccccc1-2
> 50 µM (inactive)	Cc1cc(/C=C2/C(=N)N3C(c4ccccc4)=CSC3=NC2=O)c(C)n1-c1ccc(F)cc1
> 50 µM (inactive)	COc1ccc(NC(=O)C2CCCN(S(=O)(=O)N3CCCCCC3)C2)cc1 (configuration not stated)
17.6 µM	O=C(Cn1nc2c3c4c(sc3ncn2c1=O)CCCCC4)Nc1ccc(Cl)cc1F
3.31 µM	O=C(CCCn1c(=O)c2ccccc2n(CC(=O)NCc2ccccc2Cl)c1=O)NCc1ccc2c(c1)OCO2
> 50 µM (inactive)	O=C(COC(=O)Cn1cnc2ccccc21)Nc1ccc2c(c1)OCCO2
43.2 µM	O=C(Nc1ccccc1)C1CCCN(C(=O)c2cc3ccccc3[nH]2)C1 (configuration not stated)
> 50 µM (inactive)	COc1ccc(C(=O)CSc2nnc(-c3cccnc3)n2-c2ccccc2)cc1
15.4 µM	O=C(CC(C(=O)Nc1ccc2c(c1)OCO2)C(=O)c1ccccc1)Nc1ccc(Cl)cc1F (configuration not stated)
> 50 µM (inactive)	Fc1ccc(Nc2nc(Nc3cccc(F)c3)nc3nccnc23)cc1
> 50 µM (inactive)	COc1ccc(CCNC(=O)c2noc3c2CCc2sccc2-3)cc1OC
> 50 µM (inactive)	Cc1c(C(=O)Nc2cccc(C(F)(F)F)c2)cnn1-c1ccccn1
49.9 µM	O=c1c(OC2O[C@H](CO)[C@H](O)[C@H](O)[C@H]2O)c(-c2ccc(O)cc2)oc2cc(O)cc(O)c12 (some centres not stated)
40.2 µM	COc1ccc(C)cc1NC(=O)C1CC(=O)Nc2nc3ccccc3n21 (configuration not stated)
26.6 µM	COc1ccc(NC(=O)C2C3C=CC4(O3)C2C(=O)N(CCc2ccccc2)C4C(=O)NC2CCCCC2)cc1 (configuration not stated)
> 50 µM (inactive)	O=C(Nc1ccc2c(c1)OCCO2)c1ccc(N2CCCCC2)nn1
> 50 µM (inactive)	Cn1nc(-c2nc(-c3ccccc3)no2)c2c1CCN(C(=O)C1CCCC1)C2
2.18 µM	CC[C@H](C)C[C@H]1CC[C@](O)([C@](C)(O)C(=O)N[C@@H]2C(=O)N3NCCC[C@@H]3C(=O)N(O)[C@@H](C)C(=O)NCC(=O)N3NCCC[C@H]3C(=O)N(O)[C@H](C)C(=O)O[C@H]2C(C)C)O[C@@H]1C
> 50 µM (inactive)	Cc1ccc(NC(=O)c2cc(=O)n(C)c3c2c(=O)n(C)c(=O)n3C)c(C)c1
39.3 µM	COc1ccc(NC(=O)Nc2cccc(-c3nnc(-c4ccccc4)o3)c2)cc1OC
